Test results published in article PMC5562305, “Impact of novel palmitoylated prolactin-releasing peptide analogs on metabolic changes in mice with diet-induced obesity” (PLoS ONE, 2017).
Starred links: 1 amine or outer side, 2 acyl side, 3 side chain; linkers in the order of their positions; H or OH if unused. Residues, ends and D or L forms follow the SMILES beside them. Groups on a side chain read outwards from the residue. *: point of attachment. TTDA(Palmitoyl) = CCCCCCCCCCCCCCCC(=O)NCCCOCCOCCOCCCN*; γGlu = O=C(O)[C@H](CCC(=O)[*:2])N[*:1]; Palmitoyl = CCCCCCCCCCCCCCCC(=O)*; Suc = O=C(CCC(=O)[*:2])[*:1]

Assay: Hormonal and biochemical (metabolic) parameters in blood of DIO mice
Assay type: in vivo, C57BL/6 mice
Conditions: mean ± SEM; for Glucose: blood; for Glucose / FFA / Insulin / Leptin / T Chol (total cholesterol) / Triglycerides: 5 mg/kg SC twice a day, 2 weeks; for HOMA index: fasting glucose x fasting insulin / 22.5, 2 weeks; for FFA / Insulin / Leptin / T Chol (total cholesterol) / Triglycerides: plasma
Excerpt: From 8 weeks of age, the mice were fed in house made high-fat (HF) diet to induce obesity. […] After twelve weeks of HF-diet feeding, two weeks of SC administration of lipidized PrRP analogs was initiated while the mice were kept on the HF diet. The following experimental groups were established: […] Food intake and BW were monitored daily during the dosing period. At the end of the experiment, the mice were sacrificed by decapitation. The trunk blood was collected, and the blood plasma was separated and stored at -20°C. The visceral adipose tissues (VAT) (from abdominal part), subcutaneous adipose tissues (SCAT) (all adipose tissue depots under the skin), perirenal adipose tissues, interscapular brown adipose tissues (BAT), and livers of all of the mice were dissected, weighed, flash-frozen in liquid nitrogen, and stored at -70°C for later extraction of RNA. The plasma insulin concentrations were measured using an RIA assay (Millipore, St. Charles, MI, USA), and the leptin concentrations were determined by ELISA (Millipore, St. Charles, MI, USA). The blood glucose levels were measured using a Glucocard glucometer (Arkray, Kyoto, Japan). The plasma triglyceride levels were measured using a quantitative enzymatic reaction (Sigma, St. Louis, MO, USA), and the free fatty acids (FFA) levels were determined using a colorimetric assay (Roche, Mannheim, Germany). Cholesterol was determined by colorimetric assay (Erba Lachema, Brno, Czech Republic). All measurements were performed according to the manufacturer's instructions.

CCCCCCCCCCCCCCCC(=O)N[C@@H](CCC(=O)NCCCC[C@H](NC(=O)[C@@H](NC(=O)[C@H](CCC(=O)O)NC(=O)[C@H](CCSC)NC(=O)[C@H](CO)NC(=O)[C@H](Cc1c[nH]cn1)NC(=O)[C@H](CCCNC(=N)N)NC(=O)[C@H](Cc1c[nH]cn1)NC(=O)[C@@H](NC(=O)[C@H](CCCNC(=N)N)NC(=O)[C@@H](N)CO)[C@@H](C)O)[C@@H](C)CC)C(=O)N[C@H](C(=O)N1CCC[C@H]1C(=O)N[C@@H](CC(=O)O)C(=O)N[C@H](C(=O)N[C@@H](CC(N)=O)C(=O)N1CCC[C@H]1C(=O)N[C@@H](C)C(=O)N[C@@H](Cc1c[nH]c2ccccc12)C(=O)N[C@@H](Cc1ccc(O)cc1)C(=O)N[C@@H](C)C(=O)N[C@@H](CO)C(=O)N[C@@H](CCCNC(=N)N)C(=O)NCC(=O)N[C@H](C(=O)N[C@@H](CCCNC(=N)N)C(=O)N1CCC[C@H]1C(=O)N[C@H](C(=O)NCC(=O)N[C@@H](CCCNC(=N)N)C(=O)N[C@@H](Cc1ccccc1)C(N)=O)C(C)C)[C@@H](C)CC)[C@@H](C)CC)[C@@H](C)O)C(=O)O [analog 1] (H-SRTHRHSMEIK([γGlu-Palmitoyl])TPDINPAWYASRGIRPVGRF-NH2; N-terminus assumed)
Glucose: 7.12 ± 0.36 mmol/L | HOMA index: 85.70 ± 0.39 | FFA: 0.54 ± 0.03 mmol/L | Insulin: 1.57 ± 0.14 ng/mL | Leptin: 22.67 ± 2.72 ng/mL | T Chol (total cholesterol): 4.26 ± 0.22 mmol/L | Triglycerides: 0.44 ± 0.03 mg/mL

CCCCCCCCCCCCCCCC(=O)NCCCOCCOCCOCCCNC(=O)CCC(=O)NCCCC[C@H](NC(=O)[C@@H](NC(=O)[C@H](CCC(=O)O)NC(=O)[C@H](CCSC)NC(=O)[C@H](CO)NC(=O)[C@H](Cc1c[nH]cn1)NC(=O)[C@H](CCCNC(=N)N)NC(=O)[C@H](Cc1c[nH]cn1)NC(=O)[C@@H](NC(=O)[C@H](CCCNC(=N)N)NC(=O)[C@@H](N)CO)[C@@H](C)O)[C@@H](C)CC)C(=O)N[C@H](C(=O)N1CCC[C@H]1C(=O)N[C@@H](CC(=O)O)C(=O)N[C@H](C(=O)N[C@@H](CC(N)=O)C(=O)N1CCC[C@H]1C(=O)N[C@@H](C)C(=O)N[C@@H](Cc1c[nH]c2ccccc12)C(=O)N[C@@H](Cc1ccc(O)cc1)C(=O)N[C@@H](C)C(=O)N[C@@H](CO)C(=O)N[C@@H](CCCNC(=N)N)C(=O)NCC(=O)N[C@H](C(=O)N[C@@H](CCCNC(=N)N)C(=O)N1CCC[C@H]1C(=O)N[C@H](C(=O)NCC(=O)N[C@@H](CCCNC(=N)N)C(=O)N[C@@H](Cc1ccccc1)C(N)=O)C(C)C)[C@@H](C)CC)[C@@H](C)CC)[C@@H](C)O [analog 2] (H-SRTHRHSMEIK([Suc-TTDA(Palmitoyl)])TPDINPAWYASRGIRPVGRF-NH2; N-terminus assumed)
Glucose: 7.26 ± 0.31 mmol/L | HOMA index: 86.27 ± 0.64 | FFA: 0.52 ± 0.02 mmol/L | Insulin: 1.55 ± 0.27 ng/mL | Leptin: 23.64 ± 3.54 ng/mL | T Chol (total cholesterol): 3.96 ± 0.26 mmol/L | Triglycerides: 0.44 ± 0.04 mg/mL

CCCCCCCCCCCCCCCC(=O)NCCCOCCOCCOCCCNC(=O)CCC(=O)NCCCC[C@H](NC(=O)[C@@H](NC(=O)[C@H](CCC(=O)O)NC(=O)[C@H](CCSC)NC(=O)[C@H](CO)NC(=O)[C@H](Cc1c[nH]cn1)NC(=O)[C@H](CCCNC(=N)N)NC(=O)[C@H](Cc1c[nH]cn1)NC(=O)[C@@H](NC(=O)[C@H](CCCNC(=N)N)NC(=O)[C@H](CO)NC(=O)CCC(=O)NCCCOCCOCCOCCCNC(=O)CCCCCCCCCCCCCCC)[C@@H](C)O)[C@@H](C)CC)C(=O)N[C@H](C(=O)N1CCC[C@H]1C(=O)N[C@@H](CC(=O)O)C(=O)N[C@H](C(=O)N[C@@H](CC(N)=O)C(=O)N1CCC[C@H]1C(=O)N[C@@H](C)C(=O)N[C@@H](Cc1c[nH]c2ccccc12)C(=O)N[C@@H](Cc1ccc(O)cc1)C(=O)N[C@@H](C)C(=O)N[C@@H](CO)C(=O)N[C@@H](CCCNC(=N)N)C(=O)NCC(=O)N[C@H](C(=O)N[C@@H](CCCNC(=N)N)C(=O)N1CCC[C@H]1C(=O)N[C@H](C(=O)NCC(=O)N[C@@H](CCCNC(=N)N)C(=O)N[C@@H](Cc1ccccc1)C(N)=O)C(C)C)[C@@H](C)CC)[C@@H](C)CC)[C@@H](C)O [analog 3] ({TTDA(Palmitoyl)-Suc}-SRTHRHSMEIK([Suc-TTDA(Palmitoyl)])TPDINPAWYASRGIRPVGRF-NH2)
Glucose: 7.91 ± 0.46 mmol/L | HOMA index: 163.13 ± 1.06 | FFA: 0.62 ± 0.03 mmol/L | Insulin: 2.69 ± 0.30 ng/mL | Leptin: 40.30 ± 5.57 ng/mL | T Chol (total cholesterol): 4.86 ± 0.17 mmol/L | Triglycerides: 0.63 ± 0.05 mg/mL
